Where a name gives a salt, the structure may show the parent alone.

This is an account of results in patent publication US12643880B2, “Heterobifunctional molecules as TEAD inhibitors” (Genentech, Inc., priority 2020, dated 2026).

Assay type in all cases: binding
Conditions in all cases: His-tagged TEAD protein, biotinylated lipid pocket probe

The target in one assay is TEAD1 (Homo sapiens, UniProt P28347). Description: TEAD lipid pocket TR-FRET (Lipid HTRF) competition assay, TEAD1. On the procedure:
(§1) His-tagged TEAD proteins are pre-incubated with TEAD project compounds for 30 minutes at room temperature. Biotinylated lipid pocket probes are then added to the TEAD/Compound mixture and incubated for 60 minutes at room temperature. The lipid pocket probe competes with the test compound for the TEAD lipid pocket until equilibrium is reached. After 60 minutes, Europium labelled anti-His (Perkin Elmer #ADO 110) and XL665 labelled streptavidin (CIS Bio 610SAXAC) are added to the TEAD/test compound/lipid pocket mixture and incubated for 30 minutes. TR-FRET values are then measured using an EnVision multi-label plate reader (Perkin Elmer Cat #2104-1A.) If the lipid pocket probe binds to TEAD as expected, a TR-FRET signal results from the proximity of Tani-His Eu and XL665. If a TEAD lipid pocket binder such as binds and displaces the lipid pocket probe, the disruption of the TEAD:probe interaction results in a decrease in TR-FRET signal. The potency of compounds as TEAD lipid pocket binders is determined by IC50 value generated using a non-linear 4 parameter curve fit. This assay format enables more sensitive determinations of lipid pocket affinity than the aforementioned TEAD lipid pocket FP assay due to the decreased concentration of TEAD protein required for the TR-FRET assay format.
Background: Time-resolved FRET reads energy transfer from a long-lived donor to a nearby acceptor.

Another assay addresses TEAD3 (Homo sapiens, UniProt Q99594). Description: TEAD lipid pocket TR-FRET (Lipid HTRF) competition assay, TEAD3. On the procedure:
as §1

For another assay, the target named is TEAD2 (Homo sapiens, UniProt Q15562). Description: TEAD lipid pocket TR-FRET (Lipid HTRF) competition assay, TEAD2. The procedure:
as §1

A further assay concerns the target TEAD4 (Homo sapiens, UniProt Q15561). Description: TEAD lipid pocket TR-FRET (Lipid HTRF) competition assay, TEAD4. On the procedure:
as §1

TEAD3, sequence (Q99594 whole entry, species assumed): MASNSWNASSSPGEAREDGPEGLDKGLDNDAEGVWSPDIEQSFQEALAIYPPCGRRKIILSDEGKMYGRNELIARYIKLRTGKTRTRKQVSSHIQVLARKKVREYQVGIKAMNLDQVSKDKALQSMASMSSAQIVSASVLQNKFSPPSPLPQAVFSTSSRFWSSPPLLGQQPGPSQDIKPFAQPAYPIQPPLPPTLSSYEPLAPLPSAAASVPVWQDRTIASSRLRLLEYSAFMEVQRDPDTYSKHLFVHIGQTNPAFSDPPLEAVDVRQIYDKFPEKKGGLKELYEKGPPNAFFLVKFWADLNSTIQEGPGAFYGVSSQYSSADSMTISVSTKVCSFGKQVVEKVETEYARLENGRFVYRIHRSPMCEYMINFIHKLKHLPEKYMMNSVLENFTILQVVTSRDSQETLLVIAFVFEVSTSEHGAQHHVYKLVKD
TEAD1, sequence (P28347 whole entry, species assumed): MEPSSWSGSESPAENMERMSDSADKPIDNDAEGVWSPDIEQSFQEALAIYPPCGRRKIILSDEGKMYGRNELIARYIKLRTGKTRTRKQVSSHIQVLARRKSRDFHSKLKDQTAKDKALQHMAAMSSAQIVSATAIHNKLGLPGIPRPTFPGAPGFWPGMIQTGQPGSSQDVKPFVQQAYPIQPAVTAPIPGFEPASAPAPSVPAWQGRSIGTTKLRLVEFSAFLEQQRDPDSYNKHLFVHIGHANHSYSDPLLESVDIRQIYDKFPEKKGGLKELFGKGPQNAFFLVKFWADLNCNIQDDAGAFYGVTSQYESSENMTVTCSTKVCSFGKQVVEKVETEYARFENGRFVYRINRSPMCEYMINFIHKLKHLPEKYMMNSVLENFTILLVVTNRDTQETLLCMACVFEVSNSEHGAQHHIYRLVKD
TEAD4, sequence (Q15561 whole entry, species assumed): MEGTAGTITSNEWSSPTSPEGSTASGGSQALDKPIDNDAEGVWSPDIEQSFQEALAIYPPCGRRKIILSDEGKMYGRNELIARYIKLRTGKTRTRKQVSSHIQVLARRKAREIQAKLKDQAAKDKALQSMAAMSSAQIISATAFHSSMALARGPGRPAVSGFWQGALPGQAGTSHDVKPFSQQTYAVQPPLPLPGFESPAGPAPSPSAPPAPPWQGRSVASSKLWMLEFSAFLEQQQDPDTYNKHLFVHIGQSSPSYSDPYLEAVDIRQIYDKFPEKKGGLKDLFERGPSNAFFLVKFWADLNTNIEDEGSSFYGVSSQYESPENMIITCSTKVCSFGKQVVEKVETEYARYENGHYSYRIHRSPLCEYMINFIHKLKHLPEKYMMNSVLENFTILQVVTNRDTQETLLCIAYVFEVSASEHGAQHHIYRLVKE
TEAD2, sequence (Q15562 whole entry, species assumed): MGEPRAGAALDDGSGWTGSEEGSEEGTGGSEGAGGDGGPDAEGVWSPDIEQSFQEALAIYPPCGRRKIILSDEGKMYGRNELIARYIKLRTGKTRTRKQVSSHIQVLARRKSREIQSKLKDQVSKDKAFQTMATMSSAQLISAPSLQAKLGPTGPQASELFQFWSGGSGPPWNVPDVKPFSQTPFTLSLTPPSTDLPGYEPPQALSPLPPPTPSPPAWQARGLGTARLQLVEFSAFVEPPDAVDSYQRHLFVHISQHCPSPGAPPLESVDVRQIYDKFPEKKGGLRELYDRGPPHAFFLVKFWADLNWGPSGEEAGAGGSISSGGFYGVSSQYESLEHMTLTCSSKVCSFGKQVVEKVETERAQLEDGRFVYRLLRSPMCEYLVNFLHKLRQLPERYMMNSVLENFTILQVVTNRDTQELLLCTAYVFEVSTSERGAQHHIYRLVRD

With `COc1cnc(C(=O)NCc2cccc(CC(=O)NCCOCCOCCOCC(=O)N[C@H](C(=O)N3C[C@H](O)C[C@H]3C(=O)NCc3ccc(-c4scnc4C)cc3)C(C)(C)C)c2)cc1/C=C/[C@H]1CC[C@H](C(F)(F)F)CC1` [Compound 15, N-(3-((S)-16-((2S,4R)-4-Hydroxy-2-((4-(4-methylthiazol-5-yl)benzyl)carbamoyl)pyrrolidine-1-carbonyl)-17,17-dimethyl-2,14-dioxo-6,9,12-trioxa-3,15-diazaoctadecyl)benzyl)-5-methoxy-4-((E)-2-(trans-4-(trifluoromethyl)cyclohexyl)vinyl)picolinamide], the IC50 at TEAD1 came out at 600 nM; on TEAD3 it was 3630 nM; on TEAD2 it was 380 nM; at TEAD4, 170 nM.
For `COc1cnc(C(=O)NCc2cccc(CC(=O)N(C)CCOCCOCCOCCOCCOCCOc3ccc4c(c3)C(=O)N(C3CCC(=O)NC3=O)C4=O)c2)cc1/C=C/[C@H]1CC[C@H](C(F)(F)F)CC1` (stereo partly drawn) [Compound 7, N-(3-(20-((2-(2,6-Dioxopiperidin-3-yl)-1,3-dioxoisoindolin-5-yl)oxy)-3-methyl-2-oxo-6,9,12,15,18-pentaoxa-3-azaicosyl)benzyl)-5-methoxy-4-((E)-2-(trans-4-(trifluoromethyl)cyclohexyl)vinyl)picolinamide] the same measures were 360 nM, 2000 nM, 110 nM and 60 nM.
For `COc1cnc(C(=O)NCc2cccc(CC(=O)N(C)CCOCCOc3ccc4c(c3)C(=O)N(C3CCC(=O)NC3=O)C4=O)c2)cc1/C=C/[C@H]1CC[C@H](C(F)(F)F)CC1` (stereo partly drawn) [Compound 5, N-(3-(2-((2-(2-((2-(2,6-Dioxopiperidin-3-yl)-1,3-dioxoisoindolin-5-yl)oxy)ethoxy)ethyl)(methyl)amino)-2-oxoethyl)benzyl)-5-methoxy-4-((E)-2-(trans-4-(trifluoromethyl)cyclohexyl)vinyl)picolinamide] the same measures were 510 nM, 4000 nM, 180 nM and 110 nM.
For `COc1cnc(C(=O)NCc2cccc(CC(=O)NCCCCC(=O)N[C@H](C(=O)N3C[C@H](O)C[C@H]3C(=O)NCc3ccc(-c4scnc4C)cc3)C(C)(C)C)c2)cc1/C=C/[C@H]1CC[C@H](C(F)(F)F)CC1` [Compound 11, N-(3-(2-((5-(((S)-1-((2S,4R)-4-Hydroxy-2-((4-(4-methylthiazol-5-yl)benzyl)carbamoyl)pyrrolidin-1-yl)-3,3-dimethyl-1-oxobutan-2-yl)amino)-5-oxopentyl)amino)-2-oxoethyl)benzyl)-5-methoxy-4-((E)-2-(trans-4-(trifluoromethyl)cyclohexyl)vinyl)picolinamide] the same measures were 700 nM, 2530 nM, 370 nM and 170 nM.
With `COc1cnc(C(=O)NCc2cccc(CC(=O)N(C)CCCOc3ccc4c(c3)C(=O)N(C3CCC(=O)NC3=O)C4=O)c2)cc1/C=C/[C@H]1CC[C@H](C(F)(F)F)CC1` (stereo partly drawn) [Compound 8, N-(3-(2-((3-((2-(2,6-Dioxopiperidin-3-yl)-1,3-dioxoisoindolin-5-yl)oxy)propyl)(methyl)amino)-2-oxoethyl)benzyl)-5-methoxy-4-((E)-2-(trans-4-(trifluoromethyl)cyclohexyl)vinyl)picolinamide], the half-inhibitory concentration (IC50) was found to be 720 nM at TEAD1, 8200 nM on TEAD3, 290 nM on TEAD2 and 180 nM at TEAD4.
Turning to `CN[C@@H](C)C(=O)N[C@H](C(=O)N1CCC[C@H]1C(=O)Nc1sc(NC(=O)COCCOCCOCCOCCOCCOCCN(C)C(=O)Cc2cccc(CNC(=O)c3cc(/C=C/[C@H]4CC[C@H](C(F)(F)F)CC4)c(OC)cn3)c2)nc1-c1ccccc1)C1CCCCC1` [Compound 20, N-(3-(23-((5-((S)-1-((S)-2-Cyclohexyl-2-((S)-2-(methylamino)propanamido)acetyl)pyrrolidine-2-carboxamido)-4-phenylthiazol-2-yl)amino)-3-methyl-2,23-dioxo-6,9,12,15,18,21-hexaoxa-3-azatricosyl)benzyl)-5-methoxy-4-((E)-2-(trans-4-(trifluoromethyl)cyclohexyl)vinyl)picolinamide formate], the half-inhibitory concentration (IC50) on TEAD1 was 510 nM; at TEAD3 it was 4300 nM; at TEAD2, 340 nM; on TEAD4 it was 130 nM.
In the case of `COc1cnc(C(=O)NCc2cccc(CC(=O)N(C)CCCCCOc3ccc4c(c3)C(=O)N(C3CCC(=O)NC3=O)C4=O)c2)cc1/C=C/[C@H]1CC[C@H](C(F)(F)F)CC1` (stereo partly drawn) [Compound 10, N-(3-(2-((5-((2-(2,6-Dioxopiperidin-3-yl)-1,3-dioxoisoindolin-5-yl)oxy)pentyl)(methyl)amino)-2-oxoethyl)benzyl)-5-methoxy-4-((E)-2-(trans-4-(trifluoromethyl)cyclohexyl)vinyl)picolinamide], the half-inhibitory concentration (IC50) was 18800 nM at TEAD1, 50000 nM at TEAD3, 4800 nM on TEAD2 and 470 nM on TEAD4.
Regarding `COc1cnc(C(=O)NCc2cccc(CC(=O)N(C)CCOCCOCCOc3ccc4c(c3)C(=O)N(C3CCC(=O)NC3=O)C4=O)c2)cc1/C=C/[C@H]1CC[C@H](C(F)(F)F)CC1` (stereo partly drawn) [Compound 6, N-(3-(2-((2-(2-(2-((2-(2,6-Dioxopiperidin-3-yl)-1,3-dioxoisoindolin-5-yl)oxy)ethoxy)ethoxy)ethyl)(methyl)amino)-2-oxoethyl)benzyl)-5-methoxy-4-((E)-2-(trans-4-(trifluoromethyl)cyclohexyl)vinyl)picolinamide], the IC50 was 1150 nM at TEAD1, 30000 nM at TEAD3, 180 nM at TEAD2 and 70 nM on TEAD4.
For `COc1cnc(C(=O)NCc2cccc(CC(=O)N(C)CCCCCCOc3ccc4c(c3)C(=O)N(C3CCC(=O)NC3=O)C4=O)c2)cc1/C=C/[C@H]1CC[C@H](C(F)(F)F)CC1` (stereo partly drawn) [Compound 2, N-(3-(2-((6-((2-(2,6-Dioxopiperidin-3-yl)-1,3-dioxoisoindolin-5-yl)oxy)hexyl)(methyl)amino)-2-oxoethyl)benzyl)-5-methoxy-4-((E)-2-(trans-4-(trifluoromethyl)cyclohexyl)vinyl)picolinamide] the same measures were 5750 nM, 18800 nM, 1150 nM and 400 nM.
For `COc1cnc(C(=O)NCc2cccc(CC(=O)N(C)CCOCCOCCOCCOCCOc3ccc4c(c3)C(=O)N(C3CCC(=O)NC3=O)C4=O)c2)cc1/C=C/[C@H]1CC[C@H](C(F)(F)F)CC1` (stereo partly drawn) [Compound 4, N-(3-(17-((2-(2,6-Dioxopiperidin-3-yl)-1,3-dioxoisoindolin-5-yl)oxy)-3-methyl-2-oxo-6,9,12,15-tetraoxa-3-azaheptadecyl)benzyl)-5-methoxy-4-((E)-2-(trans-4-(trifluoromethyl)cyclohexyl)vinyl)picolinamide] the same measures were 280 nM, 1830 nM, 200 nM and 70 nM.
Consider `COc1cnc(C(=O)NCc2cccc(CC(=O)N(C)CCCCOc3ccc4c(c3)C(=O)N(C3CCC(=O)NC3=O)C4=O)c2)cc1/C=C/[C@H]1CC[C@H](C(F)(F)F)CC1` (stereo partly drawn) [Compound 1, N-(3-(2-((4-((2-(2,6-dioxopiperidin-3-yl)-1,3-dioxoisoindolin-5-yl)oxy)butyl)(methyl)amino)-2-oxoethyl)benzyl)-5-methoxy-4-((E)-2-(trans-4-(trifluoromethyl)cyclohexyl)vinyl)picolinamide], for which the IC50 at TEAD1 worked out at 650 nM; on TEAD3, 6000 nM; at TEAD2 it was 230 nM; at TEAD4, 90 nM.
As to `COc1cnc(C(=O)NCc2cccc(CC(=O)NCCOCCOCCOCCOCC(=O)N[C@H](C(=O)N3C[C@H](O)C[C@H]3C(=O)NCc3ccc(-c4scnc4C)cc3)C(C)(C)C)c2)cc1/C=C/[C@H]1CC[C@H](C(F)(F)F)CC1` [Compound 16, N-(3-((S)-19-((2S,4R)-4-Hydroxy-2-((4-(4-methylthiazol-5-yl)benzyl)carbamoyl)pyrrolidine-1-carbonyl)-20,20-dimethyl-2,17-dioxo-6,9,12,15-tetraoxa-3,18-diazahenicosyl)benzyl)-5-methoxy-4-((E)-2-(trans-4-(trifluoromethyl)cyclohexyl)vinyl)picolinamide], the IC50 was determined as 350 nM at TEAD1, 2570 nM at TEAD3, 160 nM at TEAD2 and 60 nM on TEAD4.

In general, IC50 refers to the concentration that gives 50% inhibition.
